# Legend:
# [1] = test system: 26_ds (DNA, duplex) CAATCGGATCGAATTCGATCCGATTG; assay: fluorescent indicator displacement; conditions: K+ 40 mM (30 mM KCl + potassium phosphate); 10 mM potassium phosphate pH 7, 25 °C; 0.5 µM thiazole orange displaced, 0.25 µM DNA
# [2] = test system: F21T_k-ras (DNA, G4) GGGCGGTGTGGGAATAGGGAA; assay: FRET melting; conditions: K+ 10 mM (potassium phosphate); 10 mM potassium phosphate pH 7; 0.8 µM compound, 0.4 µM DNA, no competitor dsDNA
# [3] = test system: 22_hTelo (DNA, G4) AGGGTTAGGGTTAGGGTTAGGG; assay: fluorescent indicator displacement; conditions: K+ 40 mM (30 mM KCl + potassium phosphate); 10 mM potassium phosphate pH 7, 25 °C; 0.5 µM thiazole orange displaced, 0.25 µM DNA
# [4] = test system: 22_c-myc (DNA, G4) TGAGGGTGGGTAGGGTGGGTAA; assay: fluorescent indicator displacement; conditions: K+ 40 mM (30 mM KCl + potassium phosphate); 10 mM potassium phosphate pH 7, 25 °C; 0.5 µM thiazole orange displaced, 0.25 µM DNA
# [5] = test system: F21T_hTelo (DNA, G4) GGGTTAGGGTTAGGGTTAGGG; assay: FRET melting; conditions: K+ 10 mM (potassium phosphate); 10 mM potassium phosphate pH 7; 0.8 µM compound, 0.4 µM DNA, no competitor dsDNA
# [6] = test system: F21T_c-kit1 (DNA, G4) GGGAGGGCGCTGGGAGGAGGG; assay: FRET melting; conditions: K+ 10 mM (potassium phosphate); 10 mM potassium phosphate pH 7; 0.8 µM compound, 0.4 µM DNA, no competitor dsDNA
# [7] = test system: 22_k-ras (DNA, G4) AGGGCGGTGTGGGAATAGGGAA; assay: fluorescent indicator displacement; conditions: K+ 40 mM (30 mM KCl + potassium phosphate); 10 mM potassium phosphate pH 7, 25 °C; 0.5 µM thiazole orange displaced, 0.25 µM DNA
# [8] = test system: 22_c-kit1 (DNA, G4) AGGGAGGGCGCTGGGAGGAGGG; assay: fluorescent indicator displacement; conditions: K+ 40 mM (30 mM KCl + potassium phosphate); 10 mM potassium phosphate pH 7, 25 °C; 0.5 µM thiazole orange displaced, 0.25 µM DNA
# [9] = test system: 21_c-kit2 (DNA, G4) CGGGCGGGCGCGAGGGAGGGG; assay: fluorescent indicator displacement; conditions: K+ 40 mM (30 mM KCl + potassium phosphate); 10 mM potassium phosphate pH 7, 25 °C; 0.5 µM thiazole orange displaced, 0.25 µM DNA
# [10] = test system: F21T_c-myc (DNA, G4) GAGGGTGGGTAGGGTGGGTAA; assay: FRET melting; conditions: K+ 10 mM (potassium phosphate); 10 mM potassium phosphate pH 7; 0.8 µM compound, 0.4 µM DNA, no competitor dsDNA
# [11] = test system: F20T_c-kit2 (DNA, G4) GGGCGGGCGCGAGGGAGGGG; assay: FRET melting; conditions: K+ 10 mM (potassium phosphate); 10 mM potassium phosphate pH 7; 0.8 µM compound, 0.4 µM DNA, no competitor dsDNA
SMILES,DC50 [1] [µM],ΔTm [2] [°C],DC50 [3] [µM],DC50 [4] [µM],ΔTm [5] [°C],ΔTm [6] [°C],DC50 [7] [µM],DC50 [8] [µM],DC50 [9] [µM],ΔTm [10] [°C],ΔTm [11] [°C]
C(=N\[C@@H](COCc1ccc(-c2ccccn2)nc1)c1ccccc1)/c1ccc(OCc2cn(Cc3ccccc3)nn2)cn1.C(=N\[C@@H](COCc1ccc(-c2ccccn2)nc1)c1ccccc1)/c1ccc(OCc2cn(Cc3ccccc3)nn2)cn1.C(=N\[C@@H](COCc1ccc(-c2ccccn2)nc1)c1ccccc1)/c1ccc(OCc2cn(Cc3ccccc3)nn2)cn1.[Fe+2].[Fe+2],3.9 ± 0.2,21.0,1.06 ± 0.03,0.40 ± 0.03,24.6,23.7,0.45 ± 0.02,0.87 ± 0.02,0.85 ± 0.05,,
C(=N\[C@@H](COCc1ccc(-c2ccccn2)nc1)c1ccccc1)/c1ccccn1.C(=N\[C@@H](COCc1ccc(-c2ccccn2)nc1)c1ccccc1)/c1ccccn1.C(=N\[C@@H](COCc1ccc(-c2ccccn2)nc1)c1ccccc1)/c1ccccn1.[Fe+2].[Fe+2],5.3 ± 0.3,,1.95 ± 0.09,0.80 ± 0.04,,27.2,0.65 ± 0.03,1.41 ± 0.03,1.26 ± 0.06,,
C(=N\[C@H](COCc1ccc(-c2ccccn2)nc1)c1ccccc1)/c1ccc(OCc2cn(Cc3ccccc3)nn2)cn1.C(=N\[C@H](COCc1ccc(-c2ccccn2)nc1)c1ccccc1)/c1ccc(OCc2cn(Cc3ccccc3)nn2)cn1.C(=N\[C@H](COCc1ccc(-c2ccccn2)nc1)c1ccccc1)/c1ccc(OCc2cn(Cc3ccccc3)nn2)cn1.[Fe+2].[Fe+2],2.6 ± 0.1,41.8,1.05 ± 0.05,0.30 ± 0.03,,,0.27 ± 0.01,0.79 ± 0.03,0.78 ± 0.05,5.2,11.9
C(=N\[C@H](COCc1ccc(-c2ccccn2)nc1)c1ccccc1)/c1ccccn1.C(=N\[C@H](COCc1ccc(-c2ccccn2)nc1)c1ccccc1)/c1ccccn1.C(=N\[C@H](COCc1ccc(-c2ccccn2)nc1)c1ccccc1)/c1ccccn1.[Fe+2].[Fe+2],3.8 ± 0.2,,2.2 ± 0.1,0.53 ± 0.02,27.6,,0.42 ± 0.02,0.96 ± 0.04,1.05 ± 0.04,11.7,19.8
